In patent US10125129B2 (priority 2016, dated 2018):

molecular target: T1, μ opioid receptor (MOR) (Homo sapiens, UniProt P35372); assay: cell-based; format: cell-based; details: EC50
T1 construct: expressed in transfected cells
T1 sequence (P35372 whole entry): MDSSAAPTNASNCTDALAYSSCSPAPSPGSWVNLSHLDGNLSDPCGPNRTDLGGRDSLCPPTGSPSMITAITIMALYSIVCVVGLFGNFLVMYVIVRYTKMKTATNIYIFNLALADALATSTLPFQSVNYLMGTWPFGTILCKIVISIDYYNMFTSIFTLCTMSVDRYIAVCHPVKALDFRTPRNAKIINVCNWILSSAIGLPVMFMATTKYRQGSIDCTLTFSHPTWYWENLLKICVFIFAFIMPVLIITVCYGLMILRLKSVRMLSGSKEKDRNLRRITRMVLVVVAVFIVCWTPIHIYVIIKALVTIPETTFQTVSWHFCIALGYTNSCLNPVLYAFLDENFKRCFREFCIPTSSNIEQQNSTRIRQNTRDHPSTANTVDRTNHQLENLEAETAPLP

| Compound | EC50 |
| --- | --- |
| COC(=O)[C@@H]1C=C(OC(=O)/C=C/c2ccccc2)C(=O)[C@H]2[C@@]1(C)CC[C@H]1C(=O)O[C@H](c3ccoc3)C[C@]21C [Table 3 Entry 6, (2S,4aR,6aR,7R,10aR,10bR)-Methyl 9-(cinnamoyloxy)-2-(furan-3-yl)-6a,10b-dimethyl-4,10-dioxo-2,4,4a,5,6,6a,7,10,10a,10b-decahydro-1Hbenzo[f]isochromene-7-carboxylate] | 30 ± 10 nM |
| COC(=O)[C@@H]1C=C(OC(=O)c2cscn2)C(=O)[C@H]2[C@@]1(C)CC[C@H]1C(=O)O[C@H](c3ccoc3)C[C@]21C [Table 3 Entry 7, (2S,4aR,6aR,7R,10aR,10bR)-2-(Furan-3-yl)-7-(methoxycarbonyl)-6a,10b-dimethyl-4,10-dioxo-2,4,4a,5,6,6a,7,10,10a,10b-decahydro-1H-benzo[f]isochromen-9-yl thiazole-4-carboxylate] | 8 ± 3 nM |
| COC(=O)[C@@H]1C=C(OC(=O)c2cc3ccccc3s2)C(=O)[C@H]2[C@@]1(C)CC[C@H]1C(=O)O[C@H](c3ccoc3)C[C@]21C [Table 3 Entry 13] | 6 ± 1 nM |
| COC(=O)[C@@H]1C=C(OC(=O)Cc2ccccc2)C(=O)[C@H]2[C@@]1(C)CC[C@H]1C(=O)O[C@H](c3ccoc3)C[C@]21C [Table 3 Entry 4, (2S,4aR,6aR,7R,10aR,10bR)-Methyl 2-(furan-3-yl)-6a,10bdimethyl-4,10-dioxo-9-(2-phenylacetoxy)-2,4,4a,5,6,6a,7,10a,10b-decahydro-1Hbenzo[f]isochromene-7-carboxylate] | 130 ± 50 nM |
| COC(=O)[C@@H]1C=C(OC(=O)c2cocn2)C(=O)[C@H]2[C@@]1(C)CC[C@H]1C(=O)O[C@H](c3ccoc3)C[C@]21C [Table 3 Entry 9, (2S,4aR,6aR,7R,10aR,10bR)-2-(Furan-3-yl)-7-(methoxycarbonyl)-6a,10b-dimethyl-4,10-dioxo-2,4,4a,5,6,6a,10,10a,10b-decahydro-1H-benzo[f]isochromen-9-yl oxazole-4-carboxylate] | 30 ± 2 nM |
| COC(=O)[C@@H]1C=C(OC(=O)CCc2ccccc2)C(=O)[C@H]2[C@@]1(C)CC[C@H]1C(=O)O[C@H](c3ccoc3)C[C@]21C [Table 3 Entry 5, (2S,4aR,6aR,7R,10 aR,10bR)-Methyl 2-(furan-3-yl)-6a,10bdimethyl-4,10-dioxo-9-((3-phenylpropanoyl)oxy)-2,4,4a,5,6,6a,7,10,10a,10b-decahydro-1H-benzo[f]isochromene-7-carboxylate] | 500 ± 200 nM |

same assay, conditions: Series 1 EC50

| Compound | EC50 |
| --- | --- |
| COC(=O)[C@@H]1C[C@H](OC(=O)c2ccccc2Cl)C(=O)[C@H]2[C@@]1(C)CC[C@H]1C(=O)O[C@H](c3ccoc3)C[C@]21C [Series 1 Entry 5, (2S,4aR,6aR,7R,9S,10aS,10bR)-Methyl 9-((2-chlorobenzoyl)oxy)-2-(furan-3-yl)-6a,10b-dimethyl-4,10-dioxododecahydro-1H-benzo[f]isochromene-7-carboxylate] | 3400 ± 200 nM |
| COC(=O)[C@@H]1C[C@H](OC(=O)c2cccs2)C(=O)[C@H]2[C@@]1(C)CC[C@H]1C(=O)O[C@H](c3ccoc3)C[C@]21C [Series 1 Entry 20] | 330 ± 70 nM |
| COC(=O)[C@@H]1C[C@H](OC(=O)c2cccc(F)c2)C(=O)[C@H]2[C@@]1(C)CC[C@H]1C(=O)O[C@H](c3ccoc3)C[C@]21C [Series 1 Entry 9, (2S,4aR,6aR,7R,9S,10aS,10bR)-Methyl 9-((3-fluorobenzoyl)oxy)-2-(furan-3-yl)-6a,10b-dimethyl-4,10-dioxododecahydro-1H-benzo[f]isochromene-7-carboxylate] | 460 ± 80 nM |
| COC(=O)[C@@H]1C[C@H](OC(=O)c2ccccc2F)C(=O)[C@H]2[C@@]1(C)CC[C@H]1C(=O)O[C@H](c3ccoc3)C[C@]21C [Series 1 Entry 8, (2S,4aR,6aR,7R,9S,10aS,10bR)-Methyl 9-((2-fluorobenzoyl)oxy)-2-(furan-3-yl)-6a,10b-dimethyl-4,10-dioxododecahydro-1H-benzo[f]isochromene-7-carboxylate] | 400 ± 100 nM |
| COC(=O)[C@@H]1C[C@H](OC(=O)c2ccccc2C)C(=O)[C@H]2[C@@]1(C)CC[C@H]1C(=O)O[C@H](c3ccoc3)C[C@]21C [Series 1 Entry 11, (2S,4aR,6aR,7R,9S,10aS,10bR)-Methyl 2-(furan-3-yl)-6a,10b-dimethyl-9-((2-methylbenzoyl)oxy)-4,10-dioxododecahydro-1H-benzo[f]isochromene-7-carboxylate] | 1600 ± 400 nM |
| COC(=O)[C@@H]1C[C@H](OC(=O)c2ccccc2[N+](=O)[O-])C(=O)[C@H]2[C@@]1(C)CC[C@H]1C(=O)O[C@H](c3ccoc3)C[C@]21C [Series 1 Entry 2] | 2000 ± 1000 nM |

same assay, conditions: Series 2 EC50

| Compound | EC50 |
| --- | --- |
| COC(=O)[C@@H]1C=C(OC(=O)c2ccccc2OC)C(=O)[C@H]2[C@@]1(C)CC[C@H]1C(=O)O[C@H](c3ccoc3)C[C@]21C [Series 2 Entry 14, (2S,4aR,6aR,7R,10aR,10bR)-Methyl 2-(furan-3-yl)-9-((2-methoxybenzoyl)oxy)-6a,10b-dimethyl-4,10-dioxo-2,4,4a,5,6,6a,7,10,10a,10b-decahydro-1H-benzo[f]isochromene-7-carboxylate] | 2000 ± 1000 nM |
| COC(=O)[C@@H]1C=C(OC(=O)c2cccc([N+](=O)[O-])c2)C(=O)[C@H]2[C@@]1(C)CC[C@H]1C(=O)O[C@H](c3ccoc3)C[C@]21C [Series 2 Entry 3, (2S,4aR,6aR,7R,10aR,10bR)-Methyl 2-(furan-3-yl)-6a,10b-dimethyl-9-((3-nitrobenzoyl)oxy)-4,10-dioxo-2,4,4a,5,6,6a,7,10,10a,10b-decahydro-1H-benzo[f]isochromene-7-carboxylate] | 320 ± 10 nM |
| COC(=O)[C@@H]1C=C(OC(=O)c2ccc(Cl)cc2)C(=O)[C@H]2[C@@]1(C)CC[C@H]1C(=O)O[C@H](c3ccoc3)C[C@]21C [Series 2 Entry 7, (2S,4aR,6aR,7R,10aR,10bR)-Methyl 9-((4-chlorobenzoyl)oxy)-2-(furan-3-yl)-6a,10b-dimethyl-4,10-dioxo-2,4,4a,5,6,6a,7,10,10a,10b-decahydro-1H-benzo[f]isochromene-7-carboxylate] | 29 ± 8 nM |
| COC(=O)[C@@H]1C=C(OC(=O)c2cccc(C)c2)C(=O)[C@H]2[C@@]1(C)CC[C@H]1C(=O)O[C@H](c3ccoc3)C[C@]21C [Series 2 Entry 12, (2S,4aR,6aR,7R,10aR,10bR)-Methyl 2-(furan-3-yl)-6a,10b-dimethyl-9-((3-methylbenzoyl)oxy)-4,10-dioxo-2,4,4a,5,6,6a,7,10,10a,10b-decahydro-1H-benzo[f]isochromene-7-carboxylate] | 160 ± 30 nM |
| COC(=O)[C@@H]1C=C(OC(=O)c2ccccc2F)C(=O)[C@H]2[C@@]1(C)CC[C@H]1C(=O)O[C@H](c3ccoc3)C[C@]21C [Series 2 Entry 8] | 4.7 ± 0.4 nM |
| COC(=O)[C@@H]1C=C(OC(=O)c2ccncc2)C(=O)[C@H]2[C@@]1(C)CC[C@H]1C(=O)O[C@H](c3ccoc3)C[C@]21C [Series 2 Entry 19, (2S,4aR,6aR,7R,10aR,10bR)-2-(Furan-3-yl)-7-(methoxycarbonyl)-6a,10b-dimethyl-4,10-dioxo-2,4,4a,5,6,6a,7,10,10a,10bdecahydro-1H-benzo[f]isochromen-9-yl isonicotinate] | 6 ± 1 nM |
| COC(=O)[C@@H]1C=C(OC(=O)c2cccs2)C(=O)[C@H]2[C@@]1(C)CC[C@H]1C(=O)O[C@H](c3ccoc3)C[C@]21C [Series 2 Entry 20, (2S,4aR,6aR,7R,6aR,7R,10aR,10bR)-Methyl 2-(furan-3-yl)-6a,10bdimethyl-4,10-dioxo-9-((thiophene-2-carbonyl)oxy)-2,4,4a,5,6,6a,7,10,10a,10b-decahydro-1H-benzo[f]isochromene-7-carboxylate] | 1.4 ± 0.8 nM |
| COC(=O)[C@@H]1C=C(OC(=O)c2ccccc2C)C(=O)[C@H]2[C@@]1(C)CC[C@H]1C(=O)O[C@H](c3ccoc3)C[C@]21C [Series 2 Entry 11, (2S,4aR,6aR,7R,10aR,10bR)-Methyl 2-(furan-3-yl)-6a,10b-dimethyl-9-((2-methylbenzoyl)oxy)-4,10-dioxo-2,4,4a,5,6,6a,7,10,10a,10b-decahydro-1H-benzo[f]isochromene-7-carboxylate] | 240 ± 40 nM |
| COC(=O)[C@@H]1C=C(OC(=O)c2ccccn2)C(=O)[C@H]2[C@@]1(C)CC[C@H]1C(=O)O[C@H](c3ccoc3)C[C@]21C [Series 2 Entry 17, (2S,4aR,6aR,7R,10aR,10bR)-2-(Furan-3-yl)-7-(methoxycarbonyl)-6a,10b-dimethyl-4,10-dioxo-2,4,4a,5,6,6a,7,10,10bdecahydro-1H-benzo[f]isochromen-9-yl picolinate] | 410 ± 50 nM |
| COC(=O)[C@@H]1C=C(OC(=O)c2ccsc2)C(=O)[C@H]2[C@@]1(C)CC[C@H]1C(=O)O[C@H](c3ccoc3)C[C@]21C [Series 2 Entry 21, (2S,4aR,6aR,7R,10aR,10bR)-Methyl 2-(furan-3-yl)-6a,10bdimethyl-4,10-dioxo-9-((thiophene-3-carbonyl)oxy)-2,4,4a,5,6,6a,7,10,10a,10b-decahydro-1H-benzo[f]isochromene-7-carboxylate] | 1.3 ± 0.9 nM |

same assay, conditions: read-out: Series 2 EC50

| Compound | EC50 |
| --- | --- |
| COC(=O)[C@@H]1C=C(OC(=O)c2cccc(OC)c2)C(=O)[C@H]2[C@@]1(C)CC[C@H]1C(=O)O[C@H](c3ccoc3)C[C@]21C [Series 2 Entry 15, (2S,4aR,6aR,7R,10aR,10bR)-Methyl 2-(furan-3-yl)-9-((3-methoxybenzoyl)oxy)-6a,10b-dimethyl-4,10-dioxo-2,4,4a,5,6,6a,7,10,10a,10b-decahydro-1H-benzo[f]isochromene-7-carboxylate] | 11 ± 2 nM |
| COC(=O)[C@@H]1C=C(OC(=O)c2ccc(C)cc2)C(=O)[C@H]2[C@@]1(C)CC[C@H]1C(=O)O[C@H](c3ccoc3)C[C@]21C [Series 2 Entry 13, (2S,4aR,6aR,7R,10aR,10bR)-Methyl 2-(furan-3-yl)-6a,10b-dimethyl-9-((4-methylbenzoyl)oxy)-4,10-dioxo-2,4,4a,5,6a,7,10,10a,10b-decahydro-1H-benzo[f]isochromene-7-carboxylate] | 21.8 ± 0.3 nM |
